# Patent US20250230193A1, “CYCLIC COMPOUND HAVING SELECTIVE KRAS INHIBITORY EFFECT ON HRAS AND NRAS” (CHUGAI SEIYAKU KABUSHIKI KAISHA, priority 2022, published 2025)
# Where a SMILES comes first, the peptide text is derived from it. Bridges are numbered along the chain shown (N, C = ends). [ ]: non-standard residue; d: D form. The star is where a group is joined. hPhe(3-Cl-4-CF3) = N[C@@H](CCc1ccc(C(F)(F)F)c(Cl)c1)C(=O)O; NPrPhe(4-CF3) = CCCN[C@@H](Cc1ccc(C(F)(F)F)cc1)C(=O)O; NMeGly(cPent) = CN[C@H](C(=O)O)C1CCCC1; NMeD = CN[C@@H](CC(=O)O)C(=O)O; NMeL = CN[C@@H](CC(C)C)C(=O)O; Morpholide = C1CN(*)CCO1; Ac4c = NC1(C(=O)O)CCC1; NEtG = CCNCC(=O)O; Sar = CNCC(=O)O
# What was measured:
# [1] = target: GDP-bound NRAS wild-type protein (Homo sapiens, UniProt P01111); assay: Binding to NRAS by surface plasmon resonance (SPR), Single Cycle Kinetics; settings: for NRAS/KRAS (ratio of KD value with respect to GDP-bound NRAS wild-type protein to KD value with respect to KRAS): class symbols
# Sequence of GDP-bound NRAS wild-type protein (P01111 whole entry): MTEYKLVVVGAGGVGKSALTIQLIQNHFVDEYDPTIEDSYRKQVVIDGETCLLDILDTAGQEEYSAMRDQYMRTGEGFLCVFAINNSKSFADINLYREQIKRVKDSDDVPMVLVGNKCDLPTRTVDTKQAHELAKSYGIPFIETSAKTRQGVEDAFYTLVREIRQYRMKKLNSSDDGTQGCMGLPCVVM
# [2] = target: GDP-bound HRAS wild-type protein (Homo sapiens, UniProt P01112); assay: Binding to HRAS by surface plasmon resonance (SPR), Single Cycle Kinetics; settings: for HRAS/KRAS (ratio of KD value with respect to GDP-bound HRAS wild-type protein to KD value with respect to KRAS): class symbols
# Sequence of GDP-bound HRAS wild-type protein (P01112 whole entry): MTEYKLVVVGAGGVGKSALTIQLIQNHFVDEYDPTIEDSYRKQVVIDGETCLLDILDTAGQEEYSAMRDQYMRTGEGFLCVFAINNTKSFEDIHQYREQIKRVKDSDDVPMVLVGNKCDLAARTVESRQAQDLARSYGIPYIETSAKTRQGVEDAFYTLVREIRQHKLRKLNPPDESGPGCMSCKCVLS
# [3] = KD ratio, GDP-bound NRAS wild-type vs GDP-bound KRAS wild-type, SPR
# [4] = KD ratio, GDP-bound HRAS wild-type vs GDP-bound KRAS wild-type, SPR
compound,measurement,setting,value
CCO[C@@H]1C[C@H]2C(=O)NC3(CCCC3)C(=O)N(C)[C@@H](C3CCCC3)C(=O)N(C)[C@H](C(=O)N3CCOCC3)CC(=O)N(C)[C@@H](CC(C)C)C(=O)N[C@@H]([C@@H](C)CC)C(=O)N(C)CC(=O)N(C)[C@H]3CCCCCN(C3=O)[C@@H](Cc3ccc(F)cc3)C(=O)N(C)CC(=O)N[C@@H](CCc3ccc(C(F)(F)F)c(Cl)c3)C(=O)N2C1 [PP0965],NRAS/KRAS (ratio of KD value with respect to NRAS to KD value with respect to KRAS),[1]; [3],B (a compound having 3 or more and less than 10 is denoted as B)
same,HRAS/KRAS (ratio of KD value with respect to HRAS to KD value with respect to KRAS),[2]; [4],B (a compound having 3 or more and less than 10 is denoted as B)
CCC(CC)[C@H]1C(=O)N(C)[C@H](C(=O)N(C)C)CC(=O)N(C)[C@@H](COC)C(=O)N[C@@H]([C@@H](C)CC)C(=O)N(C)CC(=O)N(C)[C@H]2C/C=C\CCN(C2=O)[C@@H](Cc2ccc(C)cc2)C(=O)N(C)CC(=O)N[C@@H](CCc2ccc(C(F)(F)F)c(Cl)c2)C(=O)N2CCCC[C@H]2C(=O)NC2(CC(C)(C)C2)C(=O)N1C [PP2931],NRAS/KRAS (ratio of KD value with respect to GDP-bound NRAS wild-type protein to KD value with respect to KRAS),[1],A (a compound having 10 or more and less than 20 is denoted as A)
same,HRAS/KRAS (ratio of KD value with respect to GDP-bound HRAS wild-type protein to KD value with respect to KRAS),[2],A (a compound having 10 or more and less than 20 is denoted as A)
CCCOC[C@H]1C(=O)N[C@@H]([C@@H](C)CC)C(=O)N(C)CC(=O)N(C)[C@H]2C/C=C\CCN(C2=O)[C@@H](CC2CCC(F)(F)CC2)C(=O)N(C)CC(=O)N[C@@H](CCc2ccc(C(F)(F)F)c(OC)c2)C(=O)N2C[C@H](OCC)C[C@H]2C(=O)NC2(CC(C)(C)C2)C(=O)N(C)[C@@H](C(CC)CC)C(=O)N(C)[C@H](C(=O)N(C)C)CC(=O)N1C [PP2464],NRAS/KRAS (ratio of KD value with respect to NRAS to KD value with respect to KRAS),"[1]; SPR, GDP-bound NRAS wild-type vs GDP-bound KRAS wild-type",A (a compound having 10 or more and less than 20 is denoted as A)
same,HRAS/KRAS (ratio of KD value with respect to HRAS to KD value with respect to KRAS),"[2]; SPR, GDP-bound HRAS wild-type vs GDP-bound KRAS wild-type",A (a compound having 10 or more and less than 20 is denoted as A)
CC[C@H](C)[C@@H]1NC(=O)[C@H](CC)N(C)C(=O)C[C@@H](C(=O)N(C)C)N(C)C(=O)[C@H](C2CCCC2)N(C)C(=O)C2(CCC2)NC(=O)CN(CC)C(=O)[C@H](CCc2cc(F)c(C(F)(F)F)c(F)c2)NC(=O)CN(C)C(=O)[C@H](Cc2ccc(C(F)(F)F)cc2)N2CC/C=C\C[C@@H](C2=O)N(C)C(=O)CN(C)C1=O [PP1143],NRAS/KRAS (ratio of KD value with respect to NRAS to KD value with respect to KRAS),[1]; [3],A (a compound having 10 or more and less than 20 is denoted as A)
same,HRAS/KRAS (ratio of KD value with respect to HRAS to KD value with respect to KRAS),[2]; [4],A (a compound having 10 or more and less than 20 is denoted as A)
C#CC[C@H]1C(=O)N[C@@H]([C@@H](C)CC)C(=O)N(C)CC(=O)N(C)[C@H]2C/C=C\CCN(C2=O)[C@@H](Cc2ccc(C(F)(F)F)cc2)C(=O)N(C)CC(=O)N[C@@H](CCc2ccc(Cl)c(Cl)c2)C(=O)N2C[C@H](OCC)C[C@H]2C(=O)NC2(CC(C)(C)C2)C(=O)N(C)[C@@H](C2CCCC2)C(=O)N(C)[C@H](C(=O)N(C)CC)CC(=O)N1C [PP2843],NRAS/KRAS (ratio of KD value with respect to GDP-bound NRAS wild-type protein to KD value with respect to KRAS),[1],A (a compound having 10 or more and less than 20 is denoted as A)
same,HRAS/KRAS (ratio of KD value with respect to GDP-bound HRAS wild-type protein to KD value with respect to KRAS),[2],A (a compound having 10 or more and less than 20 is denoted as A)
CCCN1C(=O)CN(C)C(=O)CN(C)C(=O)[C@H]([C@@H](C)CC)NC(=O)[C@H](CC(C)C)N(C)C(=O)C[C@@H](C(=O)N2CCOCC2)N(C)C(=O)[C@H](C2CCCC2)N(C)C(=O)C2(CCC2)NC(=O)[C@@H]2CCCN2C(=O)[C@H](CCc2ccc(C(F)(F)F)c(Cl)c2)NC(=O)CN(CC)C(=O)[C@@H]1Cc1ccc(C(F)(F)F)cc1 [PP1950] ([NMeL]I[Sar][Sar][NPrPhe(4-CF3)][NEtG][hPhe(3-Cl-4-CF3)]P[Ac4c][NMeGly(cPent)][NMeD]-Morpholide; lactam N-11),NRAS/KRAS (ratio of KD value for NRAS to KD value for KRAS),[1]; [3],B (a compound having 3 or more and less than 10 is denoted as B)
same,HRAS/KRAS (ratio of KD value for HRAS to KD value for KRAS),[2]; [4],C (A compound having a KD ratio of 0.1 or more and less than 3 is denoted as C)
CC[C@H](C)[C@@H]1NC(=O)[C@H](CC(C)C)N(C)C(=O)C[C@@H](C(=O)N2CCOCC2)N(C)C(=O)[C@H](C2CCCC2)N(C)C(=O)C2(CCC2)NC(=O)[C@@H]2CC(F)(F)CN2C(=O)[C@H](CCc2ccc(C(F)(F)F)c(Cl)c2)NC(=O)CN(C)C(=O)[C@H](Cc2ccc(F)cc2)N2CCCCC[C@@H](C2=O)N(C)C(=O)CN(C)C1=O [PP0969],NRAS/KRAS (ratio of KD value with respect to NRAS to KD value with respect to KRAS),[1]; [3],B (a compound having 3 or more and less than 10 is denoted as B)
same,HRAS/KRAS (ratio of KD value with respect to HRAS to KD value with respect to KRAS),[2]; [4],B (a compound having 3 or more and less than 10 is denoted as B)
